Measurements taken from US8633251B2, “Derivatives of aminoalkanols, method of obtaining of aminoalkanols and their use” (Uniwersytet Jagiellonski, priority 2008, dated 2014).
Read-outs that look alike come from different tables or passages of the source.

Experiments:
neurotoxicity (rotarod) = assay: Neurotoxicity test (TOX), rotarod, mice; format: in vivo
[1] = test system: maximal electroshock seizures; assay: Maximum Electroshock Seizure (MES) test, mice; format: in vivo
How it was run: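 Mice received compound in methylcellulose i.p. or p.o. at 30, 100 and 300 mg/kg, with some tests at 10 and 3 mg/kg. At 0.5 or 4 h, after tetracaine eye-drops, current was delivered through corneal electrodes (60 Hz, 0.2 s, 50 mA). Groups were one mouse at 30 and 300 mg/kg and three at 100 mg/kg.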

[2] = test system: maximal electroshock seizures; assay: Maximum Electroshock Seizure (MES) test, rats; format: in vivo
Protocol: In order to define anticonvulsant activity, screening tests were performed, using animal models of seizures. […] The tests were based on administration of a compound to an animal and after certain time inducing state similar to epilepsy attack in human. Each substance (after dissolving in methylcellulose) was normally tested in doses 30, 100, and 300 mg/kg body weight (b.w.) (mice) or in 30 and 50 mg/kg b.w. (rats) in two possible routes of administration: intraperitoneal (i.p.) or oral (p.o.). […] […] (mice) the tests were also performed in doses 10 and 3 mg/kg b.w.
Maximum Electroshock Seizure (MES) test is an electric test, verifying activity towards generalized tonic-clonic seizures (grand mal epilepsy). […] Its procedure consists in administration to an animal a mentioned dose, […] (after anesthetic eye-drops: 0.5% tetracaine hydrochloride in 0.9% NaCl) and turning on electric current (60 Hz, 0.2 s, 50 mA (mice) or 150 mA (rats)). […]

[3] = test system: seizures induced by picrotoxin; assay: Picrotoxin (PIC) induced seizures; format: in vivo
Protocol: (§1) For some compounds, a test for proconvulsant activity was performed (TTE test), as well as a test on activity in focal seizures (related with limbic system, 6 Hz test, hippocampal kindling). […] A test on inhibiting seizures induced by sound (Frings mice) was performed for compounds 12 and 26-28. Electrophysiology tests also have been performed, for seizures induced by bicuculline, picrotoxin, and NMDA. Prevention of (pilocarpine induced) status epilepticus has been noticed.

[4] = test system: seizures induced by bicuculline; assay: Bicuculline (BIC) induced seizures; format: in vivo
Protocol: as §1

[5] = test system: hippocampal kindling seizures; assay: Electric hippocampal kindling, rats; format: in vivo
Protocol: as §1

[6] = test system: metrazol seizure threshold; assay: Metrazol test, time to first twitch and first clonus; format: in vivo; details: for average time until the first twitch: control 30.07 (±1.23) min.; for average time from administration until the first clonus: control 34.38 (±0.94) min.
Protocol: In the MES test it inhibits seizures by inhibiting post-synaptic excitatory current. […] In the metrazol test average time until the first twitch was 27.3±0.2 min. for the dose 5 mg/kg b.w. and 27.6 (±0.3) min. for the dose 30 mg/kg b.w., comparing to the control 30.07 (±1.23) min. Average time from administration until the first clonus was 33.6 (±1.23) min. for the dose 5 mg/kg b.w. and 32.70 (±1.28) for the dose 30 mg/kg b.w., comparing to the control 34.38 (±0.94) min.

[7] = test system: 6 Hz focal seizures (limbic system); assay: 6 Hz test, mice; format: in vivo; details: for ED50: Mus musculus, ip, 0.25 h
Protocol: as §1

[8] = test system: formalin-induced pain (acute/neuropathic and inflammatory phase); assay: Formalin test, mice; format: in vivo; details: mice
Protocol: The test was performed with use of formaldehyde as a substance causing pain (neuropathic and inflammatory afterwards) in mice, which were injected formalin into a hind limb.
During the first 10 min. after administration the mouse is licking the hind limb (acute phase), afterwards there is a short break in behavior change, and then the mouse licks its limb again for another 20-30 min. (inflammatory phase) (FIG. 3 for 12 and FIG. 4 for 26). The acute phase represents direct affection on the peripheral nerve and the inflammatory phase is related with secretion of inflammation mediators from the damaged tissue and nerves. The described model tests effectiveness of a substance to inhibit acute and chronic excessive neuronal discharges in response to peripheral nerves activation.

[9] = test system: seizures induced by sound; assay: Sound-induced seizures, Frings mice; format: in vivo; details: Frings mice
Protocol: as §1

[10] = test system: voltage-gated sodium channels; assay: Electrophysiology, voltage-gated sodium channels; format: biochemical
[11] = test system: pilocarpine induced status epilepticus; assay: Status epilepticus prevention (pilocarpine), rats; format: in vivo, Sprague Dawley albino rat; details: i.p.; for Average weight loss ± S.E.M.: body weight loss 24 h after administration, 25 (27) or 45 (28) mg/kg b.w.; for protection in status epilepticus prevention: 25 (27) and 45 (28) mg/kg b.w.; for Protection: rats protected/tested, time 0 h, dose 25 (27) or 45 (28) mg/kg b.w.
Protocol: Status epilepticus prevention—an animal (Sprague Dawley albino rat male) is given a dose of tested substance. After 0, 0.25, 0.5, 1, 2, and 4 h pilocarpine is administered. The seizures induced are described by Racine's score. Compounds 27 and 28 were administered i.p. in doses 25 and 45 mg/kg b.w. respectively. […] Average body weight loss is measured 24 h after administration.

[12] = test system: pentylenetetrazol-induced seizures; assay: Subcutaneous Metrazol Test (ScMet), mice; format: in vivo; details: Mus musculus, sc, dose 30 mg/kg b.w., 4 h, read-out: ScMet, No. of protected animals/No. of used animals (converted)
Protocol: In order to define anticonvulsant activity, screening tests were performed, using animal models of seizures. […] The tests were based on administration of a compound to an animal and after certain time inducing state similar to epilepsy attack in human. Each substance (after dissolving in methylcellulose) was normally tested in doses 30, 100, and 300 mg/kg body weight (b.w.) (mice) or in 30 and 50 mg/kg b.w. (rats) in two possible routes of administration: intraperitoneal (i.p.) or oral (p.o.). Appropriate tests were performed 0.5 and 4 h after administration of the compound. […] (mice) the tests were also performed in doses 10 and 3 mg/kg b.w.
Subcutaneous Metrazol Test (ScMet) is a chemical test, where compounds are tested for activity in absence seizures (petit mal epilepsy). Pentetrazol (metrazol) is considered to block chloride channel in the GABAA receptor complex, therefore at a certain dose in animals it causes myoclonic jerks, next—clonic seizures, and then tonic seizures. The procedure consists in administration of a tested compound and after 0.5 or 4 h subcutaneous administration of pentylenetetrazol in the dose of 85 mg/kg b.w. (mice) or 70 mg/kg b.w. (rats) in a 0.85% solution in 0.9% NaCl. […] Normally the test is performed in single animals.

[13] = mice, dose 30 mg/kg b.w., time 0.5 h
[14] = mice, dose 100 mg/kg b.w., time 0.5 h
[15] = mice, dose 300 mg/kg b.w., time 0.5 h

## Cc1cccc(C)c1OCCNC(C)CO (stereo not drawn) [Compound 11, R,S-2N-[(2,6-dimethylphenoxy)ethyl]amino-1-propanol]
Neurotoxicity (rotarod); mouse, in vivo, 30 mg/kg
  TOX, No. of animals exhibiting motor impairment/no. of used animals: 2/4
Neurotoxicity (rotarod); mouse, in vivo, 100 mg/kg
  TOX, No. of animals exhibiting motor impairment/no. of used animals: 8/8
Neurotoxicity (rotarod); mouse, in vivo, 300 mg/kg
  TOX, No. of animals exhibiting motor impairment/no. of used animals: 4/4
[1]; [13]
  MES, No. of protected animals/No. of used animals: 1/1
[2]
  ED50 (MES, rats, p.o., 0.25 h): 47.03 mg/kg b.w.

## Cc1cccc(C)c1OCCN[C@H](C)CO [Compound 12, R-(−)-2N-[(2,6-dimethylphenoxy)ethyl]amino-1-propanol]
Neurotoxicity (rotarod); [14]
  TOX, No. of animals exhibiting motor impairment/no. of used animals: 8/8
Neurotoxicity (rotarod); mice, dose 100 mg/kg b.w., time 4 h, 100 mg/kg
  TOX, No. of animals exhibiting motor impairment/no. of used animals: 1/3
Neurotoxicity (rotarod); [15]
  TOX, No. of animals exhibiting motor impairment/no. of used animals: 4/4
[1]; Mus musculus, mice, dose 10 mg/kg b.w., time 0.5 h, read-out: MES, No. of protected animals/No. of used animals (converted)
  responders at 10 mg/kg: 25%
[1]; Mus musculus, mice, dose 30 mg/kg b.w., time 0.5 h, read-out: MES, No. of protected animals/No. of used animals
  responders at 30 mg/kg: 100%
[1]; Mus musculus, mice, dose 100 mg/kg b.w., time 0.5 h, read-out: MES, No. of protected animals/No. of used animals (converted)
  responders at 100 mg/kg: 100%
[1]; Mus musculus, mice, dose 100 mg/kg b.w., time 4 h, read-out: MES, No. of protected animals/No. of used animals (converted)
  responders at 100 mg/kg: 50%
[1]; female mice, i.p., 0.25 h
  ED50 (MES, female mice, i.p., 0.25 h): 22.28 mg/kg b.w.
[1]; mice
  activity in MES, mice: active
[1]; mice, i.p., 0.25 h
  ED50 (MES, mice, i.p., 0.25 h): 5.34 mg/kg b.w.
[1]; mice, p.o., 0.25 h
  ED50 (MES, mice, p.o., 0.25 h): 51.19 mg/kg b.w.
[3]
  ED50 (PIC, 0.25 h): > 75 mg/kg b.w.
[4]
  ED50 (BIC, 0.25 h): > 75 mg/kg b.w.
[5]; 0.25 h after administration of 60 mg/kg b.w.
  activity in electric kindling (rats, hippocampus): reveals activity
[5]
  ED50 (kindling, rats, hippocampus, 0.25 h): > 30 mg/kg b.w.
[6]; dose 5 mg/kg b.w.
  average time until the first twitch: 27.3 ± 0.2 min
  average time from administration until the first clonus: 33.6 (±1.23) min.
[6]; dose 30 mg/kg b.w.
  average time until the first twitch: 27.6 (±0.3) min.
  average time from administration until the first clonus: 32.70 (±1.28)
[7]; read-out: ED50 (6 Hz, female mice, i.p., 22 mA, 0.25 h)
  ED50: 7.06 mg/kg
[7]; read-out: ED50 (6 Hz, mice, i.p., 22 mA, 0.25 h)
  ED50: 43.8 mg/kg
[7]; female mice, i.p., 44 mA
  ED50 (6 Hz, female mice, i.p., 44 mA, 0.25 h): 41.3 mg/kg b.w.
[7]; mice, i.p., 44 mA
  ED50 (6 Hz, mice, i.p., 44 mA, 0.25 h): 30.02 mg/kg b.w.
[8]
  formalin test result (FIG. 3): inhibiting neuropathic pain (first 10 min. phase) and inflammatory pain (next 30 min. phase)
[9]
  ED50 (Frings mice, 0.25 h): 5.39 mg/kg b.w.
[10]
  effect on voltage-gated sodium channels: blocks voltage-gated sodium channels dependently on the voltage
[2]
  activity in MES, rats: active
  ED50 (MES, rats, i.p., 0.25 h): 7.43 mg/kg b.w.
  ED50 (MES, rats, p.o., 0.25 h): 28.60 mg/kg b.w.

## Cc1cccc(C)c1OCCN[C@@H](C)CO [Compound 13, S-(+)-2N-[(2,6-dimethylphenoxy)ethyl]amino-1-propanol]
Neurotoxicity (rotarod); mouse, in vivo, 100 mg/kg
  TOX, No. of animals exhibiting motor impairment/no. of used animals: 8/8
Neurotoxicity (rotarod); mouse, in vivo, 300 mg/kg
  TOX, No. of animals exhibiting motor impairment/no. of used animals: 4/4
[1]; mice, dose 10 mg/kg b.w., time 0.5 h
  MES, No. of protected animals/No. of used animals: 2/4
[1]; [13]
  MES, No. of protected animals/No. of used animals: 1/1
[1]; mice, i.p., 0.25 h
  ED50 (MES, mice, i.p., 0.25 h): 8.59 mg/kg b.w.
[2]
  ED50 (MES, rats, i.p., 0.25 h): 6.50 mg/kg b.w.

## CC[C@H](CO)NCCOc1c(C)cccc1Cl [Compound 27, R-(−)-2N-[(2-chlor-6-methylphenoxy)ethyl]amino-1-butanol]
Neurotoxicity (rotarod); [14]
  TOX, No. of animals exhibiting motor impairment/no. of used animals: 8/8
Neurotoxicity (rotarod); [15]
  TOX, No. of animals exhibiting motor impairment/no. of used animals: 4/4
[1]; [13]
  MES, No. of protected animals/No. of used animals: 1/1
[1]; [14]
  MES, No. of protected animals/No. of used animals: 1/1
[11]
  Average weight loss ± S.E.M.: 8.3 ± 7.1
  protection in status epilepticus prevention: 2 rats out of 8
  Protection: 2/8

## CC[C@@H](CO)NCCOc1c(C)cccc1Cl [Compound 28, S-(+)-2N-[(2-chlor-6-methylphenoxy)ethyl]amino-1-butanol]
Neurotoxicity (rotarod); [14]
  TOX, No. of animals exhibiting motor impairment/no. of used animals: 8/8
Neurotoxicity (rotarod); [15]
  TOX, No. of animals exhibiting motor impairment/no. of used animals: 4/4
[1]; [13]
  MES, No. of protected animals/No. of used animals: 1/1
[1]; [14]
  MES, No. of protected animals/No. of used animals: 1/1
[5]
  ED50 (kindling, rats, hippocampus, 0.25 h): 15.81 mg/kg b.w.
[11]
  Average weight loss ± S.E.M.: 3.8 ± 5.7
  protection in status epilepticus prevention: 3 rats out of 8
  Protection: 3/8

## Cc1cccc(C)c1OCC(=O)N[C@H](C)C(N)=O [Compound 65, D-2N-[(2,6-dimethylphenoxy)acetyl]aminopropionamide]
Neurotoxicity (rotarod); mice, dose 100 mg/kg b.w., 0.5 h
  TOX, No. of animals exhibiting motor impairment/no. of used animals: 2/8
Neurotoxicity (rotarod); mice, dose 300 mg/kg b.w., 0.5 h
  TOX, No. of animals exhibiting motor impairment/no. of used animals: 1/4
[1]; Mus musculus, mice, dose 300 mg/kg b.w., 0.5 h, read-out: MES, No. of protected animals/No. of used animals
  responders at 300 mg/kg: 100%
other
  melting point: 177 to 178 °C
[12]
  responders at 30 mg/kg: 20%
